Values quoted from earlier work, collected in article PMC5641599 (Molecular Metabolism, 2017).
Read-outs that look alike come from different tables or passages of the source.

Tests used:
Details in all cases: cited from earlier work
MC4R variants [1] = test system: MC4R variants
MC4R variants [2] = test system: MC4R variants; remark: listed apart in the source
MC4R variants [3] = test system: MC4R variants; remark: listed apart in the source
MC4R variants [4] = test system: MC4R variants; remark: listed apart in the source
[5] = ref Xiang Z, Biochemistry, 2010
[6] = COS-7 cell line, ref Hughes DA, Hum Genet, 2009
[7] = COS-7 cell line, ref Brumm H, Obesity, 2012
[8] = ref Rong R, Clin Endocrinol, 2006
[9] = ref Xiang Z, Biochemistry, 2006
[10] = ref Lubrano-Berthelier C, J Clin Endocrinol Metab, 2006
[11] = MC4R D126Y, ref Wang ZQ, Biochim Biophys Acta, 2011
[12] = MC4R D146N, ref Wang ZQ, Biochim Biophys Acta, 2011
[13] = MC4R F201L, ref Wang ZQ, Biochim Biophys Acta, 2011
[14] = MC4R G231V, ref Wang ZQ, Biochim Biophys Acta, 2011
[15] = MC4R I170del, ref Wang ZQ, Biochim Biophys Acta, 2011
[16] = MC4R I186V, ref Wang ZQ, Biochim Biophys Acta, 2011
[17] = MC4R I195S, ref Wang ZQ, Biochim Biophys Acta, 2011
[18] = MC4R P260Q, ref Wang ZQ, Biochim Biophys Acta, 2011
[19] = MC4R Q307X, ref Wang ZQ, Biochim Biophys Acta, 2011
[20] = MC4R T248A, ref Huang H, J Mol Endocrinol, 2012
[21] = ref Wang ZQ, Biochim Biophys Acta, 2011

R18L
Cell surface expression (MC4R variants [1]; ref Srinivasan S, J Clin Invest, 2004): 95 % of WT
Cell surface expression (MC4R variants [1]; [5]): 95 % of WT

S30F
Cell surface expression (MC4R variants [1]; S30F variant alone, ref Lubrano-Berthelier C, Hum Mol Genet, 2003): 120 % of WT
Basal activity (MC4R variants [2]; COS-7 cell line, ref Hinney A, J Clin Endocrinol Metab, 2003): 140 % of WT

S30F/G252S
Cell surface expression (MC4R variants [1]; both variants on the same allele, ref Lubrano-Berthelier C, Hum Mol Genet, 2003): 60 % of WT
Cell surface expression (MC4R variants [1]; both variants on the same allele, ref Nijenhuis WA, J Biol Chem, 2003): 69 % of WT

S36T
Cell surface expression (MC4R variants [1]; [6]): 107 % of WT
Basal activity (MC4R variants [2]; [6]): 83 % of WT

S36Y
Cell surface expression (MC4R variants [1]; [5]): 90 % of WT

W16X (MVNSTHRGMHTSLHL; nonsense W16X; UniProt P32245 1-15, looked up, fragment)
Cell surface expression (MC4R variants [1]; [7]): 5 % of WT
Cell surface expression (MC4R variants [1]; HEK293 cell line, ref Bolze F, Pharmacogenomics J, 2013): 0 % of WT

Y35C
Cell surface expression (MC4R variants [1]; [8]): 100 % of WT
Basal activity (MC4R variants [2]; [8]): 172 % of WT

Y35X (MVNSTHRGMHTSLHLWNRSSYRLHSNASESLGKG; nonsense Y35X; UniProt P32245 1-34, looked up, fragment)
Cell surface expression (MC4R variants [1]; [7]): 0 % of WT
Cell surface expression (MC4R variants [1]; [9]): 5 % of WT

Y35X;D37V (MVNSTHRGMHTSLHLWNRSSYRLHSNASESLGKG; nonsense Y35X; D37V; UniProt P32245 1-34, looked up, fragment)
Cell surface expression (MC4R variants [1]; [10]): 0 % of WT
Basal activity (MC4R variants [2]; [10]): 10 % of WT

Y287X
Cell surface expression (MC4R variants [1]; [9]): 30 % of WT
Cell surface expression (MC4R variants [1]; ref Yeo GS, Hum Mol Genet, 2003): 0 % of WT

β-MSH
cAMP Emax - Ligand no.2 (MC4R variants [3]; MC4R C40Y, COS-7 cell line, ref Hughes DA, Hum Genet, 2009): 98.0 % of WT
cAMP Emax - Ligand no.2 (% of WT) (MC4R variants [3]; MC4R C271R, COS-7 cell line, ref Tarnow P, J Biol Chem, 2003): 22.5 % of WT
cAMP Emax - Ligand no.2 (MC4R variants [3]; MC4R D37G, ref Hughes DA, Hum Genet, 2009): 75.0 % of WT
cAMP Emax - Ligand no.2 (% of WT) (MC4R variants [3]; [11]): 0.0 % of WT
cAMP Emax - Ligand no.2 (% of WT) (MC4R variants [3]; [12]): 96.1 % of WT
cAMP Emax - Ligand no.2 (% of WT) (MC4R variants [3]; [13]): 100.0 % of WT
cAMP Emax - Ligand no.2 (% of WT) (MC4R variants [3]; MC4R F202L, COS-7 cell line, ref Hughes DA, Hum Genet, 2009): 79.0 % of WT
cAMP Emax - Ligand no.2 (MC4R variants [3]; MC4R F280AfsX12, ref Xiang Z, Biochemistry, 2006): 0.0 % of WT
cAMP Emax - Ligand no.2 (% of WT) (MC4R variants [3]; MC4R G181D, ref Xiang Z, Biochemistry, 2010): 0.0 % of WT
cAMP Emax - Ligand no.2 (% of WT) (MC4R variants [3]; [14]): 104.9 % of WT
cAMP Emax - Ligand no.2 (% of WT) (MC4R variants [3]; MC4R H158R, COS-7 cell line, ref Hinney A, J Clin Endocrinol Metab, 2006): 122.0 % of WT
cAMP Emax - Ligand no.2 (% of WT) (MC4R variants [3]; MC4R I125K, ref Xiang Z, Biochemistry, 2006): 0.0 % of WT
cAMP Emax - Ligand no.2 (% of WT) (MC4R variants [3]; MC4R I170V, COS-7 cell line, ref Hughes DA, Hum Genet, 2009): 97.0 % of WT
cAMP Emax - Ligand no.2 (MC4R variants [3]; [15]): 0.0 % of WT
cAMP Emax - Ligand no.2 (% of WT) (MC4R variants [3]; [16]): 65.8 % of WT
cAMP Emax - Ligand no.2 (% of WT) (MC4R variants [3]; [17]): 94.1 % of WT
cAMP Emax - Ligand no.2 (MC4R variants [3]; MC4R I251WfsX34, ref Xiang Z, Biochemistry, 2010): 0.0 % of WT
cAMP Emax - Ligand no.2 (MC4R variants [3]; MC4R L211MfsX6, ref Xiang Z, Biochemistry, 2006): 0.0 % of WT
cAMP Emax - Ligand no.2 (% of WT) (MC4R variants [3]; MC4R M200V, COS-7 cell line, ref Hinney A, J Clin Endocrinol Metab, 2006): 91.0 % of WT
cAMP Emax - Ligand no.2 (% of WT) (MC4R variants [3]; [18]): 20.0 % of WT
cAMP Emax - Ligand no.2 (% of WT) (MC4R variants [3]; MC4R Q156R, COS-7 cell line, ref Hinney A, J Clin Endocrinol Metab, 2006): 92.0 % of WT
cAMP Emax - Ligand no.2 (MC4R variants [3]; MC4R Q307X, ref Santoro N, BMC Med Genet, 2009): 0.0 % of WT
cAMP Emax - Ligand no.2 (MC4R variants [3]; [19]): 0.0 % of WT
cAMP Emax - Ligand no.2 (MC4R variants [3]; MC4R R7C, COS-7 cell line, ref Hinney A, J Clin Endocrinol Metab, 2006): 83.0 % of WT
cAMP Emax - Ligand no.2 (% of WT) (MC4R variants [3]; MC4R R236H, COS-7 cell line, ref Hinney A, J Clin Endocrinol Metab, 2006): 96.0 % of WT
cAMP Emax - Ligand no.2 (MC4R variants [3]; MC4R S36T, COS-7 cell line, ref Hughes DA, Hum Genet, 2009): 82.0 % of WT
cAMP Emax - Ligand no.2 (% of WT) (MC4R variants [3]; MC4R S136F, COS-7 cell line, ref Tarnow P, Obes Facts, 2008): 23.0 % of WT
cAMP Emax - Ligand no.2 (% of WT) (MC4R variants [3]; MC4R S191T, COS-7 cell line, ref Hughes DA, Hum Genet, 2009): 97.0 % of WT
cAMP Emax - Ligand no.2 (% of WT) (MC4R variants [3]; MC4R T162R, COS-7 cell line, ref Ochoa MC, Clin Endocrinol, 2007): 80.0 % of WT
cAMP Emax - Ligand no.2 (% of WT) (MC4R variants [3]; [20]): 79.5 % of WT
cAMP Emax - Ligand no.2 (% of WT) (MC4R variants [3]; MC4R V166I, COS-7 cell line, ref Hinney A, J Clin Endocrinol Metab, 2006): 105.0 % of WT
cAMP Emax - Ligand no.2 (% of WT) (MC4R variants [3]; MC4R V166I, COS-7 cell line, ref Hughes DA, Hum Genet, 2009): 105.0 % of WT
cAMP Emax - Ligand no.2 (% of WT) (MC4R variants [3]; MC4R W174C, ref Xiang Z, Biochemistry, 2010): 0.0 % of WT
cAMP Emax - Ligand no.2 (MC4R variants [3]; MC4R Y35X, ref Xiang Z, Biochemistry, 2006): 0.0 % of WT
Binding Bmax - Ligand no.2 (% of WT) (MC4R variants [4]; [11]): 0.0 % of WT
Binding Bmax - Ligand no.2 (% of WT) (MC4R variants [4]; [12]): 23.9 % of WT
Binding Bmax - Ligand no.2 (% of WT) (MC4R variants [4]; [13]): 116.0 % of WT
Binding Bmax (% of WT) (MC4R variants [4]; MC4R F280L, ref Wang ZQ, Biochim Biophys Acta, 2011): 57.4 % of WT
Binding Bmax - Ligand no.2 (% of WT) (MC4R variants [4]; [14]): 123.2 % of WT
Binding Bmax (% of WT) (MC4R variants [4]; MC4R H76R, ref Wang ZQ, Biochim Biophys Acta, 2011): 81.7 % of WT
Binding Bmax (% of WT) (MC4R variants [4]; MC4R I69R, ref Wang ZQ, Biochim Biophys Acta, 2011): 0.0 % of WT
Binding Bmax - Ligand no.2 (MC4R variants [4]; [15]): 0.0 % of WT
Binding Bmax - Ligand no.2 (% of WT) (MC4R variants [4]; [16]): 150.5 % of WT
Binding Bmax - Ligand no.2 (% of WT) (MC4R variants [4]; [17]): 71.2 % of WT
Binding Bmax (% of WT) (MC4R variants [4]; MC4R I289L, ref Wang ZQ, Biochim Biophys Acta, 2011): 127.4 % of WT
Binding Bmax (% of WT) (MC4R variants [4]; MC4R M79I, ref Wang ZQ, Biochim Biophys Acta, 2011): 98.2 % of WT
Binding Bmax - Ligand no.2 (% of WT) (MC4R variants [4]; [18]): 0.0 % of WT
Binding Bmax - Ligand no.2 (MC4R variants [4]; [19]): 0.0 % of WT
Binding Bmax (% of WT) (MC4R variants [4]; MC4R R305S, ref Wang ZQ, Biochim Biophys Acta, 2011): 128.1 % of WT
Binding Bmax (% of WT) (MC4R variants [4]; MC4R S94N, ref Wang ZQ, Biochim Biophys Acta, 2011): 41.0 % of WT
Binding Bmax - Ligand no.2 (% of WT) (MC4R variants [4]; [20]): 125.0 % of WT
Binding Bmax (% of WT) (MC4R variants [4]; MC4R Y332C, ref Wang ZQ, Biochim Biophys Acta, 2011): 129.6 % of WT
Binding Bmax (% of WT) (MC4R variants [4]; MC4R Y332H, ref Wang ZQ, Biochim Biophys Acta, 2011): 150.0 % of WT

B1: I170del (protein, UniProt P32245 1-332, looked up, variant I170*)
Melanocortin receptor 4: MVNSTHRGMHTSLHLWNRSSYRLHSNASESLGKGYSDGGCYEQLFVSPEVFVTLGVISLLENILVIVAIAKNKNLHSPMYFFICSLAVADMLVSVSNGSETIVITLLNSTDTDAQSFTVNIDNVIDSVICSSLLASICSLLSIAVDRYFTIFYALQYHNIMTVKRVGIISCIWAACTVSGILFIIYSDSSAVIICLITMFFTMLALMASLYVHMFLMARLHIKRIAVLPGTGAIRQGANMKGAITLTILIGVFVVCWAPFFLHLIFYISCPQNPYCVCFMSHFNLYLILIMCNSIIDPLIYALRSQELRKTFKEIICCYPLGGLCDLSSRY
Cell surface expression (MC4R variants [1]; [21]): 10 % of WT
Basal activity (MC4R variants [2]; [21]): 25 % of WT

B2: Y80X (protein, UniProt P32245 1-79, looked up, fragment)
chain: MVNSTHRGMHTSLHLWNRSSYRLHSNASESLGKGYSDGGCYEQLFVSPEVFVTLGVISLLENILVIVAIAKNKNLHSPM
modifications: nonsense Y80X
Cell surface expression (MC4R variants [1]; [10]): 0 % of WT
Basal activity (MC4R variants [2]; [10]): 10 % of WT
